Measured values as given in US20240226078A9, “ENHANCEMENT OF MICROFRACTURE FOR REPAIRING CARTILAGE DEFECTS VIA WNT INHIBITION” (University of Pittsburgh - Of the Commonwealth System of …, priority 2021, published 2024).
Converted amounts (≈) assume the structure as drawn.

Tests used:
[1] = system: human bone marrow-derived stem cell (hBMSC)-derived cartilage; assay: COL1 expression and deposition in hBMSC-derived cartilage under Wnt inhibition (gene expression, immunofluorescence); format: cell-based
Description: FIG. 1 illustrates a comparison of COL1 gene expression in Control and Wnt inhibition (Optimized) group. […] B) Collagen type 1 detection by immunofluorescence. Control group (i-iii); Optimized group (iv-vi). […] Bar −50 μm. […] In general, as used herein small molecule (therapeutic) compounds may, for example, have a molecular weight below 1.5 kDa or below 1.0 kDa.

[2] = system: in vitro-expanded human chondrocytes; assay: Western blot analysis of human chondrocytes treated for 3 days; format: cell-based; settings: vs saline control (FIG. 2)
Description: FIG. 2 illustrates Western blot analysis for human chondrocytes treated with saline control (CON) and lorecivivint (LRC) for 3 days.
In that regards, FIG. 3 illustrates post-MFx events including: A) clot formation; B) stem cell migration, C) fibrogenesis, D) chondrogenesis and bone healing, and E) degeneration. To facilitate rapid clinical translation, it is desirable to repurpose clinically proven. human-safe Wnt inhibitors. Specifically, the Wnt inhibitor lorecivivint (SM04690), which suppresses CDC-like kinase 2 (CLK2) and dual-specificity tyrosine phosphorylation-regulated kinase 1A (DYRK1A) as well as Wnt/β-catenin signaling, has shown promising results for knee osteoarthritis as discussed above. […] The reparative outcome of Wnt- (for example, lorecivivint-) enhanced MFx provides an avenue to achieve long-term hyaline cartilage repair with a minimally invasive and cost-effective procedure, unattainable by current surgical procedures.

[3] = system: hBMSCs/blood clot construct; assay: In vitro MFx model: chondrogenesis of hBMSCs/blood clot construct; format: cell-based, human; settings: expected
Description: The cause of post-Mfx fibrocartilage formation remains unclear. An in vitro model hereof may be used to simulate post-MFx tissue remodeling for further study and/or optimization of methodologies hereof Since harvesting human post-MFx clots is not feasible, as one of the initial steps toward human studies/clinical trials, one may simulate such a post-MFx clot by encapsulating stem cells such as hBMSCs within a clot derived from human peripheral blood as described herein. Optimization studies hereof may thus proceed via such a novel in vitro model which simulates post-MFx fibrocartilage formation (see FIG. 3) and assess treatment efficacy. As illustrated schematically in FIG. 4, to mimic the post-MFx clot, stem cells such as human bone marrow-derived stem cells (hBMSCs), the likely progenitor cells contributing to MFx repair, are encapsulated within clots derived from human peripheral blood. hBMSCs/blood clot may be differentiated using, for example, a chondroinductive factor such as insulin growth factor-1 (IGF-1), one of the major synovial fluid chondroinductive factors. The hBMSCs/blood clot may, for example, be induced to differentiate into fibrocartilage upon stimulation by IGF-1 (and/or other chondroinductive factor(s)), at physiological concentration. Application of Wnt inhibitors such lorecivivint in the model allows study of the augmentation of chondrogenesis and/or reduction of fibrosis. The hBMSCs/blood clot is thereby induced to differentiate into fibrocartilage upon such stimulation. Lorecivivint and/or other Wnt inhibitor are added to the clot to study the augmentation of chondrogenesis and reduction of fibrosis.
B. In vitro model—chondrogenesis of hBMSCs/blood clot construct. hBMSCs/blood clots may, for example, be cultured in differentiation medium containing either 0, 10, 20, 50, or 100 ng/ml IGF-1. Lorecivivint may be introduced using the concentrations described above
Preparation of hBMSCs/blood clot construct. […]

hBMSC = settings: lorecivivint alone, cited from earlier work
[4] = single intraarticular injection; cited from earlier work
humans = settings: cited from earlier work
OA progression in rats = settings: intraarticular, 0.3 μg dissolved in 50 μl saline (~12 nM); cited from earlier work
[5] = cited from earlier work

Compound: Oc1nc(-c2ccc(C(F)(F)F)cc2)nc2c1CSCC2 [XAV939]
- chondrogenesis [1]: without impairing chondrogenesis
- COL1 expression ([1]; compared to controls (FIG. 1A), p<0.05): significantly lowers
- COL1 protein deposition ([1]; immunofluorescence, compared to controls (FIG. 1B)): significantly lowers

Compound: CC(C)CC(=O)Nc1cncc(-c2ccc3[nH]nc(-c4nc5cncc(-c6cccc(F)c6)c5[nH]4)c3c2)c1 [lorecivivint]
- COL1 expression [2]: significantly reduced
- COL1 immunostaining ([3]; treated constructs): absent or localized only to the marginal regions
- COL1, 3, FN, α-SMA expression levels ([3]; vs untreated group): significantly lower
- COL2, AGG, SOX9, COMP, PRG4, and COL2/COL1 expression levels ([3]; vs untreated group): higher than untreated group
- COL1 expression (hBMSC; hBMSC chondrogenesis): minimal
- initiation of hBMSC chondrogenesis (hBMSC): sufficient to initiate hBMSC chondrogenesis
- knee joint residence time [4]: > 180 days
- safety of injection (humans): safe
- OA progression (OA progression in rats): significantly ameliorates
- solubility [5]: ~5 mM (≈ 2530 µg/mL)
